Where “and” joins values, the source holds several entries; their conditions need not be identical. Identical values can stand only once. Like-named read-outs stand apart in the source and are kept apart here.
Assays:
[1] = test system: KAP organoids; test: cell viability in KAP organoids (CellTiter-Glo); type: cell-based, mouse; details: for Cell viability (%): Fig. 1d
Outline: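 Organoids dissociated to single cells, 1,000–2,000 per well in medium with 10% GFR Matrigel or Cultrex BME; inhibitors or DMSO added 24 h after plating. Viability by CellTiter-Glo 3D or 2.0 luminescence, normalized to DMSO vehicle or shNC.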

[2] = test system: RKO; test: cell viability in human CRC cell line RKO; type: cell-based; details: ED Fig. 9g, replicates; for viability at 0.0137 µM: read-out: RKO Cell viability (%), 0.0137 µM; for viability at 0.0412 µM: read-out: RKO Cell viability (%), 0.0412 µM; for viability at 0.1235 µM: read-out: RKO Cell viability (%), 0.1235 µM; for viability at 0.3704 µM: read-out: RKO Cell viability (%), 0.3704 µM; for viability at 3.3333 µM: read-out: RKO Cell viability (%), 3.3333 µM; for viability at 10 µM: read-out: RKO Cell viability (%), 10.0000 µM
Experimental: To generate KAP^2D cells, KAP organoids were isolated from Matrigel, fragmented by mechanical dissociation and plated without any extracellular matrix on common cell culture dishes. Phoenix-Eco packaging cells (CRL-3214), HCT-15 (CCL-225), HCT 116 (CCL-247), COLO 205 (CCL-222), LS 174T (CL-188), RKO (CRL-2577) and HT-29 (HTB-38) were obtained from the American Type Culture Collection. The cells were cultured at 37 °C and 7% CO2 with RPMI (KAP^2D cells) or DMEM (other cell lines), supplemented with 10% FBS and penicillin–streptomycin. KAP^2D cells were authenticated using PCR (Kras locus and Trp53 locus). Phoenix-Eco packaging cells and HCT-15, HCT 116, COLO 205, LS 174T, RKO and HT-29 cells were authenticated by the provider using short tandem repeat profiling. No commonly misidentified cell lines were used. Mycoplasma contamination was excluded by a PCR-based analysis.
(§1) For in vitro treatment studies, organoids were mechanically dissociated and digested using TrypLE supplemented with 100 µg ml^−1 DNaseI and 10.5 µM Y-27632 dihydrochloride (Invitrogen) at 37 °C. A total of 1,000–2,000 single cells were plated per well in white 96-well plates (Greiner) in culture medium containing 10% GFR Matrigel or Cultrex BME. The treatment with doxycycline (5 µg ml^−1), pharmacological inhibitors or corresponding volumes of DMSO was started 24 h after plating. Doxycycline was obtained from Sigma-Aldrich. […] Cell viability was measured by means of CellTiter-Glo 3D or CellTiter-Glo 2.0 reagent (Promega) according to the manufacturers’ instructions and the Infinite M Plex reader (Tecan, i-control version 3.9.1 software). Results were normalized to vehicle (DMSO) or to shNC. For cell-doubling assays, the cell number was quantified at the corresponding time points using Guava EasyCyte flow cytometer (Luminex, CytoSoft v5.2 software).

[3] = test system: KAP^2D cells; test: quantification of viable KAP^2D cells over time (cell-doubling assay); type: cell-based, mouse; details: Fig. 4i
Experimental: The treatment with doxycycline (5 µg ml^−1), pharmacological inhibitors or corresponding volumes of DMSO was started 24 h after plating. […] Cell viability was measured by means of CellTiter-Glo 3D or CellTiter-Glo 2.0 reagent (Promega) according to the manufacturers’ instructions and the Infinite M Plex reader (Tecan, i-control version 3.9.1 software). Results were normalized to vehicle (DMSO) or to shNC. For cell-doubling assays, the cell number was quantified at the corresponding time points using Guava EasyCyte flow cytometer (Luminex, CytoSoft v5.2 software).

[4] = test system: PDO8; test: cell viability in patient-derived CRC organoids PDO8; type: cell-based, human
Experimental: as §1

[5] = test system: PDO13; test: cell viability in patient-derived CRC organoids PDO13; type: cell-based, human
Experimental: as §1

[6] = test system: PDO12; test: cell viability in patient-derived CRC organoids PDO12; type: cell-based, human
Experimental: as §1

[7] = Homo sapiens, RKO, first experiment

## O=C1c2ccc(Nc3ccc(F)cc3F)cc2CCc2ccc(OC[C@H](O)CO)cc21 [SKL, skepinone-L, reference compound]
[1]; 1 µM, replicates
  Cell viability (%): 91.26% and 93.11%
[1]; 5 µM, replicates
  Cell viability (%): 88.80% and 85.26%
[1]; 10 µM, replicates
  Cell viability (%): 80.68% and 88.78% and 66.49%
[1]; Mus musculus, 24 h, read-out: Cell viability (%), Fig. 1d, 0.5 µM, replicates
  viability at 0.5 µM: 90.7%
[1]; Mus musculus, 24 h, read-out: Cell viability (%), Fig. 1d, 1 µM, replicates
  viability at 1 µM: 87.6%
[1]; Mus musculus, 24 h, read-out: Cell viability (%), Fig. 1d, 5 µM, replicates
  viability at 5 µM: 86.5%
[1]; Mus musculus, read-out: Cell viability (% of DMSO), drug screen in KAP organoids, 1 µM concentration, n = 3, mean
  viability at 1 µM: 86.7%
[1]; viability assay
  induction of cell death in KAP organoids (in words): only a very weak induction of cell death
[2]; 0.0137 µM, Repetition
  RKO Cell viability (%): 119.75% and 114.04%
[2]; 0.0137 µM, first experiment
  RKO Cell viability (%): 97.01% and 95.97%
[2]; 0.0412 µM, Repetition
  RKO Cell viability (%): 110.50% and 104.43%
[2]; 0.0412 µM, first experiment
  RKO Cell viability (%): 90.38% and 90.15%
[2]; 0.1235 µM, Repetition
  RKO Cell viability (%): 96.29%
[2]; 0.1235 µM, first experiment
  RKO Cell viability (%): 96.41% and 82.79%
[2]; 0.3704 µM, Repetition
  RKO Cell viability (%): 112.94% and 109.02%
[2]; 0.3704 µM, first experiment
  RKO Cell viability (%): 79.06% and 75.48%
[2]; 1.1111 µM, Repetition
  RKO Cell viability (%): 92.46% and 113.42% and 111.27%
[2]; 1.1111 µM, first experiment
  RKO Cell viability (%): 98.68% and 92.88%
[2]; 3.3333 µM, Repetition
  RKO Cell viability (%): 97.71% and 103.33%
[2]; 3.3333 µM, first experiment
  RKO Cell viability (%): 90.21% and 92.19%
[2]; 10.0000 µM, Repetition
  RKO Cell viability (%): 100.51% and 98.00%
[2]; 10.0000 µM, first experiment
  RKO Cell viability (%): 77.92% and 73.23%
[2]; Homo sapiens, RKO, Repetition
  viability at 0.0137 µM: 123%
  viability at 0.0412 µM: 107%
  viability at 0.1235 µM: 114%
  viability at 0.3704 µM: 108%
  viability at 3.3333 µM: 96.8%
  viability at 10 µM: 92%
[2]; [7]
  viability at 0.0137 µM: 103%
  viability at 0.0412 µM: 102%
  viability at 0.1235 µM: 91.2%
  viability at 0.3704 µM: 82.8%
  viability at 3.3333 µM: 96.5%
  viability at 10 µM: 71.1%
[2]; Homo sapiens, RKO, read-out: RKO Cell viability (%), 1.1111 µM, first experiment
  viability at 1.1111 µM: 99.3%
[3]; 0 h of treatment
  Number of cells: 41307.05 and 44263.95 and 43595.63 and 48502.24 and 40389.64
[3]; 12 h of treatment
  Number of cells: 65088.74 and 77948.45 and 80933.57 and 91775.55 and 95176.94 and 93698.43
[3]; 24 h of treatment
  Number of cells: 83699.30 and 94240.25 and 95144.88 and 126855.10 and 130387.80 and 122006.30
[3]; 36 h of treatment
  Number of cells: 151900.95 and 118999.57 and 148091.83 and 233974.50 and 200549.50 and 179469.60
[3]; 48 h of treatment
  Number of cells: 325693.88 and 295126.41 and 320338.47 and 303856.40 and 287208.10 and 301764.60
[3]; 60 h of treatment
  Number of cells: 579787.04 and 516216.51 and 567999.66 and 537469.80 and 457898.40 and 474698.40
[4]; PDO8, 0.5 µM, 4 d, 0.5 µM
  Cell viability (%): 95.66% and 98.53% and 69.31%
[4]; PDO8, 1 µM, 4 days, 1 µM
  Cell viability (%): 101.75% and 85.55% and 77.65%
[5]; Homo sapiens, 96 h, read-out: Cell viability (%), PDO13, 0.5 µM, 4 d
  viability at 0.5 µM: 90.8%
[5]; Homo sapiens, 96 h, read-out: Cell viability (%), PDO13, 1 µM, 4 days
  viability at 1 µM: 85.6%
[5]; PDO13, 0.5 µM, 4 d, 0.5 µM
  Cell viability (%): 102.60% and 92.37%
[5]; PDO13, 1 µM, 4 days, 1 µM
  Cell viability (%): 87.89% and 85.59%
[6]; Homo sapiens, 96 h, read-out: Cell viability (%), PDO12, 0.5 µM, 4 d
  viability at 0.5 µM: 102%
[6]; PDO12, 0.5 µM, 4 d, 0.5 µM
  Cell viability (%): 113.70% and 97.26%
[6]; PDO12, 1 µM, 4 days, 1 µM
  Cell viability (%): 108.38% and 136.33% and 112.98%

Source: article PMC11864979, “First-in-class ultralong-target-residence-time p38α inhibitors as a mitosis-targeted therapy for colorectal cancer” (Nature Cancer, 2025)
